Source: patent publication US20230183237A1, “COMPETITIVE AND NONCOMPETITIVE INHIBITORS OF THE MUSCARINIC ACETYLCHOLINE RECEPTOR M5” (Vanderbilt University, priority 2020, published 2023)
pIC50: −log10 of the molar value.

These compounds were tested against T1, hM5 (Homo sapiens, UniProt P08912) (assay: Calcium mobilization concentration-response (IC50 vs EC80 acetylcholine), CHO hM5). Details: CELL LINE hM5; calcium mobilization, EC80 acetylcholine addition; read-out: IC50.
T1 construct: expressed in transfected cells
T1 sequence (P08912 1-532): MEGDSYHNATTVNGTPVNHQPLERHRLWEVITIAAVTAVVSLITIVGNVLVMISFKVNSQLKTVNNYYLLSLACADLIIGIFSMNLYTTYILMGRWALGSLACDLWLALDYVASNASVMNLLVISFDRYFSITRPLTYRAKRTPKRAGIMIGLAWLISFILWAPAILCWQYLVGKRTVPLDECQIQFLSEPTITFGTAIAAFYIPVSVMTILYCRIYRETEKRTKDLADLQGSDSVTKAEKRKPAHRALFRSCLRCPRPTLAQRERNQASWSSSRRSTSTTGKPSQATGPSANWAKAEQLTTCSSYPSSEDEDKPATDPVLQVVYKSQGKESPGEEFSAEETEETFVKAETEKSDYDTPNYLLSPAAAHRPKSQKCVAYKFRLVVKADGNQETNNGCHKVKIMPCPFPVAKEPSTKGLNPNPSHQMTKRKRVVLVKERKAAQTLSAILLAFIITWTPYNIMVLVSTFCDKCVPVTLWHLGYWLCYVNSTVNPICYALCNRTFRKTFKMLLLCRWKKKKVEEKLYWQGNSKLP
Type: cell-based
Procedure, shortened: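 IC50 values derive from percent maximal acetylcholine response after an EC80 ACh addition, measured as kinetic calcium fluorescence (static ratio, max−min). Test compounds were added 140 s before agonist. Cells: stable hM5-CHO in HEPES-buffered HBSS with 2.5 mM probenecid, pH 7.4; ≥3 independent triplicate determinations.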

`Cc1cc2ncnn2cc1C1CCN(S(=O)(=O)c2cn(C)nc2C(F)(F)F)CC1` [Compound 101, 7-methyl-6-(1-((1-methyl-3-(trifluoromethyl)-1H-pyrazol-4-yl)sulfonyl)piperidin-4-yl)-[1,2,4]triazolo[1,5-a]pyridine] and `Cc1nn(C)cc1S(=O)(=O)N1CCC(c2cn3ncnc3cc2C(F)(F)F)CC1` [Compound 113, 6-(1-((1,3-dimethyl-1H-pyrazol-4-yl)sulfonyl)piperidin-4-yl)-7-(trifluoromethyl)-[1,2,4]triazolo[1,5-a]pyridine] are within 0.2 log units of each other in pIC50: 5.68 for the first, 5.62 for the second.

Compared with `Cc1cc2ncnn2cc1C1CCN(S(=O)(=O)c2cn(-c3ccccc3)nc2C)CC1` [Compound 102, 7-methyl-6-(1-((3-methyl-1-phenyl-1H-pyrazol-4-yl)sulfonyl)piperidin-4-yl)-[1,2,4]triazolo[1,5-a]pyridine], `Cc1cc2ncnn2cc1C1CCN(S(=O)(=O)c2cn(C)cn2)CC1` [Compound 128, 7-methyl-6-(1-((1-methyl-1H-imidazol-4-yl)sulfonyl)piperidin-4-yl)-[1,2,4]triazolo[1,5-a]pyridine] is higher in pIC50: under 5.00 for the first, 5.89 for the second. The second is the more potent here.

Compared with `Cc1cc2ncnn2cc1C1CCN(S(=O)(=O)c2cc3c(cc2F)OCC3C)CC1` (centres unmarked) [Compound 103, 6-(1-((6-fluoro-3-methyl-2,3-dihydrobenzofuran-5-yl)sulfonyl)piperidin-4-yl)-7-methyl-[1,2,4]triazolo[5-a]pyridine], `Cc1cc2ncnn2cc1C1CCN(S(=O)(=O)c2ccc3c(c2F)C(C)CO3)CC1` (centres unmarked) [Compound 104, 6-(1-((4-fluoro-3-methyl-2,3-dihydrobenzofuran-5-yl)sulfonyl)piperidin-4-yl)-7-methyl-[1,2,4]triazolo[1,5-a]pyridine] is 0.23 log units higher in pIC50: 6.71 for the first, 6.94 for the second. The second is the more potent here.

Compared with `O=S(=O)(c1ccc2c(c1)CCO2)N1CCC(c2cn3ncnc3cc2F)CC1` [Compound 105, 6-(1-((2,3-dihydrobenzofuran-5-yl)sulfonyl)piperidin-4-yl)-7-fluoro-[1,2,4]triazolo[1,5-a]pyridine], `O=S(=O)(c1ccc2c(c1)CCO2)N1CCC(c2cn3ncnc3cc2C(F)(F)F)CC1` [Compound 109, 6-(1-((2,3-dihydrobenzofuran-5-yl)sulfonyl)piperidin-4-yl)-7-(trifluoromethyl)-[1,2,4]triazolo[1,5-a]pyridine] is 0.45 log units higher in pIC50: 5.68 for the first, 6.13 for the second.

Going from `O=S(=O)(c1cc2c(cc1F)OCC2)N1CCC(c2cn3ncnc3cc2F)CC1` [Compound 106, 7-fluoro-6-(1-((6-fluoro-2,3-dihydrobenzofuran-5-yl)sulfonyl)piperidin-4-yl)-[1,2,4]triazolo[1,5-a]pyridine] to `O=S(=O)(c1cc2c(cc1F)OCC2)N1CCC(c2cn3ncnc3cc2C(F)(F)F)CC1` [Compound 110, 6-(1-((6-fluoro-2,3-dihydrobenzofuran-5-yl)sulfonyl)piperidin-4-yl)-7-(trifluoromethyl)-[1,2,4]triazolo[1,5-a]pyridine], the pIC50 rises from under 5.00 to 5.68. The second is the more potent here.

Going from `O=S(=O)(c1ccc2ncsc2c1)N1CCC(c2cn3ncnc3cc2F)CC1` [Compound 107, 6-((4-(7-fluoro-[1,2,4]triazolo[1,5-a]pyridin-6-yl)piperidin-1-yl)sulfonyl)benzo[d]thiazole] to `O=S(=O)(c1ccc2ncsc2c1)N1CCC(c2cn3ncnc3cc2C(F)(F)F)CC1` [Compound 111, 6-((4-(7-(trifluoromethyl)-[1,2,4]triazolo[1,5-a]pyridin-6-yl)piperidin-1-yl)sulfonyl)benzo[d]thiazole], the pIC50 rises from under 5.00 to 5.74.

First: Cc1nn(C)cc1S(=O)(=O)N1CCC(c2cn3ncnc3cc2F)CC1 [Compound 108, 6-(1-((1,3-dimethyl-1H-pyrazol-4-yl)sulfonyl)piperidin-4-yl)-7-fluoro-[1,2,4]triazolo[1,5-a]pyridine]
Second: Cc1cc2ncnn2cc1C1CCN(S(=O)(=O)c2c(C)nn(C)c2Cl)CC1 [Compound 138, 6-(1-((5-chloro-1,3-dimethyl-1H-pyrazol-4-yl)sulfonyl)piperidin-4-yl)-7-methyl-[1,2,4]triazolo[1,5-a]pyridine]
The pIC50 of the first is lower: under 5.00 for the first, 7.59 for the second. The second is the more potent here.

`O=S(=O)(c1ccc(Cl)nc1)N1CCC(c2cn3ncnc3cc2C(F)(F)F)CC1` [Compound 112, 6-(1-((6-chloropyridin-3-yl)sulfonyl)piperidin-4-yl)-7-(trifluoromethyl)-[1,2,4]triazolo[1,5-a]pyridine] and `COc1ccc(S(=O)(=O)N2CCC(c3cn4ncnc4cc3C)CC2)cc1C(F)(F)F` [Compound 130, 6-(1-((4-methoxy-3-(trifluoromethyl)phenyl)sulfonyl)piperidin-4-yl)-7-methyl-[1,2,4]triazoto[1,5-a]pyridine] cannot be ordered by pIC50: under 5.00 for the first, under 5.00 for the second.

`COc1cc(C2CCN(S(=O)(=O)c3ccc4c(c3)CCO4)CC2)cn2ncnc12` [Compound 114, 6-(1-((2,3-dihydrobenzofuran-5-yl)sulfonyl)piperidin-4-yl)-8-methoxy-[1,2,4]triazolo[1,5-a]pyridine] and `COc1cc(C2CCN(S(=O)(=O)c3cc4c(cc3F)OCC4)CC2)cn2ncnc12` [Compound 115, 6-(1-((6-fluoro-2,3-dihydrobenzofuran-5-yl)sulfonyl)piperidin-4-yl)-8-methoxy-[1,2,4]triazolo[1,5-a]pyridine] cannot be ordered by pIC50: under 5.00 for the first, under 5.00 for the second.

`Cc1cc2ncnn2cc1C1CCN(S(=O)(=O)c2c(F)cc3c(c2F)C(C)CO3)CC1` (centres unmarked) [Compound 116, 6-(1-((4,6-difluoro-3-methyl-2,3-dihydrobenzofuran-5-yl)sulfonyl)piperidin-4-yl)-7-methyl-[1,2,4]triazolo[1,5-a]pyridine] and `Cc1cc2ncnn2cc1C1CCN(S(=O)(=O)c2cnc3c(c2)C(C)CO3)CC1` (centres unmarked) [Compound 136, 3-methyl-5-((4-(7-methyl-[1,2,4]triazolo[1,5-a]pyridin-6-yl)piperidin-1-yl)sulfonyl)-2,3-dihydrofuro[2,3-b]pyridine] are within 0.2 log units of each other in pIC50: 6.69 for the first, 6.63 for the second.

Going from `Cc1cc2ncnn2cc1C1CCN(S(=O)(=O)c2c(C(F)(F)F)nn(C)c2C)CC1` [Compound 118, 6-(1-((1,5-dimethyl-3-(trifluoromethyl)-1H-pyrazol-4-yl)sulfonyl)piperidin-4-yl)-7-methyl-[1,2,4]triazolo[1,5-a]pyridine] to `Cc1nc(C(F)(F)F)c(S(=O)(=O)N2CCC(c3cn4ncnc4cc3C)CC2)s1` [Compound 129, 2-methyl-5-((4-(7-methyl-[1,2,4]triazolo[1,5-a]pyridin-6-yl)piperidin-1-yl)sulfonyl)-4-(trifluoromethyl)thiazole], the pIC50 falls from 7.09 to 5.42 (1.67 log units).

Compared with `Cc1cc2ncnn2cc1C1CCN(S(=O)(=O)c2ccc3c(c2)N(C)CCO3)CC1` [Compound 121, 4-methyl-6-((4-(7-methyl-[1,2,4]triazolo[1,5-a]pyridin-6-yl)piperidin-1-yl)sulfonyl)-3,4-dihydro-2H-benzo[b][1,4]oxazine], `Cc1cc2ncnn2cc1C1CCN(S(=O)(=O)c2ccc3c(c2)CCO3)C1` (centres unmarked) [Compound 126, 6-(1-((2,3-dihydrobenzofuran-5-yl)sulfonyl)pyrrolidin-3-yl)-7-methyl-[1,2,4]triazolo[1,5-a]pyridine] is lower in pIC50: 6.46 for the first, under 5.00 for the second.

`Cc1cc2ncnn2cc1C1CCN(S(=O)(=O)c2ccc3c(c2)nnn3C)CC1` [Compound 124, 1-methyl-5-((4-(7-methyl-[1,2,4]triazolo[1,5-a]pyridin-6-yl)piperidin-1-yl)sulfonyl)-1H-benzo[d][1,2,3]triazole] and `Cc1cc2ncnn2cc1C1CCN(S(=O)(=O)c2ccsc2)CC1` [Compound 125, 7-methyl-6-(1-(thiophen-3-ylsulfonyl)piperidin-4-yl)-[1,2,4]triazolo[1,5-a]pyridine] cannot be ordered by pIC50: under 5.00 for the first, under 5.00 for the second.

`Cc1cc2ncnn2cc1C1CCN(S(=O)(=O)c2cc3c(cc2F)OCC3)C1` (centres unmarked) [Compound 127, 6-(1-((6-fluoro-2,3-dihydrobenzofuran-5-yl)sulfonyl)pyrrolidin-3-yl)-7-methyl-[1,2,4]triazolo[1,5-a]pyridine] and `CCn1cc(S(=O)(=O)N2CCC(c3cn4ncnc4cc3C)CC2)c(C2CC2)n1` [Compound 134, 6-(1-((3-cyclopropyl-1-ethyl-1H-pyrazol-4-yl)sulfonyl)piperidin-4-yl)-7-methyl-[1,2,4]triazolo[1,5-a]pyridine] cannot be ordered by pIC50: under 5.00 for the first, under 5.00 for the second.

First: [2H]C([2H])([2H])n1ncc(S(=O)(=O)N2CCC(c3cn4ncnc4cc3C)CC2)c1C1CC1 [Compound 131, 6-(1-((5-cyclopropyl-1-(methyl-d3)-1H-pyrazol-4-yl)sulfonyl)piperidin-4-yl)-7-methyl-[1,2,4]triazolo[1,5-a]pyridine]
Second: CCn1ncc(S(=O)(=O)N2CCC(c3cn4ncnc4cc3C)CC2)c1C1CC1 [Compound 133, 6-(1-((5-cyclopropyl-1-ethyl-1H-pyrazol-4-yl)sulfonyl)piperidin-4-yl)-7-methyl-[1,2,4]triazolo[1,5-a]pyridine]
The pIC50 of the first is higher: 7.55 for the first, under 5.00 for the second.

Compared with `[2H]C([2H])([2H])n1cc(S(=O)(=O)N2CCC(c3cn4ncnc4cc3C)CC2)c(C2CC2)n1` [Compound 132, 6-(1-((3-cyclopropyl-1-(methyl-d3)-1H-pyrazol-4-yl)sulfonyl)piperidin-4-yl)-7-methyl-[1,2,4]triazolo[1,5-a]pyridine], `O=S(=O)(c1ccc2c(c1)CCO2)N1CC=C(c2cn3ncnc3cc2Cl)CC1` [Compound 139, 7-chloro-6-(1-((2,3-dihydrobenzofuran-5-yl)sulfonyl)-1,2,3,6-tetrahydropyridin-4-yl)-[1,2,4]triazolo[1,5-a]pyridine] is 0.94 log units higher in pIC50: 5.89 for the first, 6.83 for the second. The second is the more potent here.
